Consider 87 compounds from a melting point compilation (Tetko et al.; mined from patent text by program, amines drawn as free bases though some values may be those of a salt).

A value given as a limit tells only on which side of the number the result lay.

Broadly, the melting point is the temperature, or range, at which the solid turns liquid. In turn, `CC(C)=CCN1c2ccccc2NC(=O)C1(C)C` came in with a melting point of 146 to 147 °C.
Next, `O=C(NC1CCCc2cc(C(=O)O)ccc21)OCc1ccccc1` (configuration not stated): 203 to 205 °C; `COc1ccc([C@@]2(C)CNC(=O)O2)cc1OC1CCCC1`: 80 °C.
Next, `Cc1cccc(N2C(=O)C(=NO)c3ccccc32)c1C`: 215 to 216 °C; `Cc1cccc(P(=O)(O)c2cccc(C)c2)c1`: 172 °C; `NNc1ccnc2c(NC(=O)c3ccccc3[N+](=O)[O-])cccc12`: 198 to 203 °C.
Next, `FC(F)(F)c1ccc(OCCCc2cn(C(c3ccccc3)(c3ccccc3)c3ccccc3)cn2)cc1`: 150 to 151 °C; `Cn1nc(C(F)(F)F)cc1Oc1cc(Oc2cc(C(F)(F)F)nn2C)nc(Oc2cc(C(F)(F)F)nn2C)c1`: 130 °C.
Regarding `CCCCN(CCCC)C(=O)CC(C)Nc1c(C#N)cnn1-c1ccc(Cl)c(Cl)c1Cl` (configuration not stated), the melting point lay within 101 to 103 °C.
To `CCOC(=O)C(=O)Cc1cc(Cl)c(Cl)cc1[N+](=O)[O-]` belongs 92 to 94 °C.
To `COC(=O)c1ccc(OCCNC(=O)C2Cc3ccccc3N2S(=O)(=O)c2ccc(-c3ccc(F)cc3Cl)cc2)nc1` (configuration not stated) belongs 78 to 85 °C; to `CCC1Cn2c(ncc(C(N)=O)c2=O)-c2ccccc21` (configuration not stated), 197 to 202 °C.
Next, `CCOC(=O)c1cc(O)cc2cc(-c3ccc(O)cc3)oc12`: 221 to 223 °C; `Cc1oc(-c2ccc3ccccc3c2)nc1COc1ccc(COc2ncccc2C#N)cc1`: 145 to 146 °C; `O=C(NN=c1[nH]nc(Cl)c2ccccc12)c1ccccc1`: 162 °C.
`CCOC(=O)CCCCCN(NS(=O)(=O)c1ccc(Cl)cc1)C(=O)Nc1cc(OC)cc(C(C)(C)C)c1O` came in with a melting point of 69 to 70 °C.
Consider `C(=C\c1nc(COc2ccccc2CCCn2cncn2)co1)/c1ccccc1`, for which the melting point is 72 to 73 °C.
Compound `CCc1cnc(C2=NC(C)(C(C)C)C(=O)N2)c(C(=O)NCCCC(=O)OC)c1` (configuration not stated) registered a melting point of 132 to 134 °C.
Next, `Brc1ccc(-c2ccc(-c3ccc(Br)s3)c3nsnc23)s1`: 247 to 248 °C; `CC(C)c1nc(N)cc(=O)[nH]1`: 229 to 230 °C.
Next, `O=C(NCC12CC3CC(CC(C3)C1)C2)c1cc(-c2ccc(Cl)c(C(=O)O)n2)ccc1Cl`: 154 to 159 °C.
For `O=C(CCCCCNC(=O)c1ccco1)NO`, the melting point lay in the range of 114 to 115 °C.
Next, `CC(=O)c1cc(C#N)c(OCc2ccccc2)nc1C`: 94 to 99 °C.
Next, `Oc1cc(CCl)nc(C(Cl)(Cl)Cl)n1`: 138 to 144 °C; `Cc1c(-c2ccccc2)[nH]c2ccc(Br)cc12`: 138 to 140 °C; `O[C@H](COc1ccccc1C=Cc1nc2ccccc2s1)CN1CCC(c2ccc3ccccc3c2)CC1`: 125 to 127 °C.
`CCOC(=O)Cn1c2c([nH]c(=O)c1=O)CCC1=C2C=C(n2ccc(C=O)c2)CC1`: the melting point was greater than 250 °C.
To `NC(=O)C1=CC=CNC=C1` belongs 167 to 171 °C; to `CC(C)(C)OC(=O)CCc1ccnc(-c2nc(=O)c3ccc(Br)cc3s2)c1`, 173 to 174 °C.
To `CC1CC2C3CCC4=CC(=O)CCC4=C3C=CC2(C)C1O` (configuration not stated) belongs 149 to 151 °C; to `OCC=C(c1ccccc1)c1ccccc1`, 112 to 115 °C.
Turning to `Cc1ccc(N2C(=O)C(O)=C(C(=O)c3ccc(C(C)C)cc3)C2c2ccc(C(C)C)cc2)cn1` (configuration not stated), the melting point lay within 252 to 254 °C.
Next, `Cc1cc(N)cnc1-c1ccccc1`: 93 to 98 °C; `CCc1ccccc1-c1cccc(-n2cnc(-c3nc(C)no3)c2)c1`: 150 to 156 °C; `CCC(Cc1cccc(F)c1)n1nnc2cc3c(cc2c1=O)OC1CCCN1C3=O` (configuration not stated): 117 to 119 °C.
To `CCCCCCOc1ccc(-c2cc(C=O)ccc2C=O)cc1` belongs 44.5 to 45.5 °C; to `Cc1c(NC(=O)c2ccc(-c3ccc(F)cc3)cc2)ccc2cc(CN3CCC(CCCC(=O)N(C)C)CC3)cnc12`, 202 to 204 °C; to `CN1C(=O)SC(Cc2cn(-c3ccccc3)nc2O)C1=O` (configuration not stated), 233 to 234 °C.
To `C=C[C@@H](C[C@H](O)[C@H](CC1CCCCC1)NC(=O)[C@H](Cc1c[nH]cn1)NC(=O)[C@@H](CC(=O)N1CCC(C(=O)OCC)CC1)Cc1ccccc1)C(C)C` belongs 103 °C; to `COC(=O)C1CCc2cc(OCc3ccccc3)c(OCc3ccccc3)cc2C1O` (configuration not stated), 121 to 124 °C.
`CCc1cnc2c(c1)C(=O)N(C(C)(C(N)=O)C(C)C)C2=O` (configuration not stated): the melting point lay in the range of 115 to 117 °C.
Compound `CCCc1c(OCCCOc2ccc3c(c2CCC)OC(CCC(=O)O)C=C3)ccc(C(C)=O)c1O` (configuration not stated) had a melting point of 60 to 62 °C.
`CCCCCCCCCCCCCCCCCCOc1ccc(NC(=O)c2ccc(OC(C)=O)cc2)cc1OCCCCCCCCCCCCCCCCCC` displayed a melting point of 107 °C.
As to `CCCCCSc1ncccc1C(=O)NCCCCn1cnc2c(N)nc3ccccc3c21`, the melting point lay in the range of 158 to 161 °C.
To `C=CCc1cc(CC(=O)NCCCC)ccc1O` belongs 48 to 50 °C; to `COC(=O)CN(c1ccccc1)c1ccc(OC)cc1C(=O)OC`, 85 to 87 °C; to `COc1ccc(C(C)C)cc1-c1cc(-c2nnnn2CCc2ccccc2)c(O)cc1O`, 206 to 209 °C.
To `Nc1cc(C(F)(F)F)ccc1S(=O)(=O)c1ccccc1` belongs 142 to 143 °C; to `C[C@@H](NCc1ccc(O)cc1)c1cccc2ccccc12`, 132 to 133 °C.
Next, `COc1nc(C)nc(OC)c1[N+](=O)[O-]`: 114 to 115 °C; `Nc1cc(C(=O)c2ccccc2)ccc1N1CCCC1`: 112 °C.
Take `CCOC(=O)c1cnc(Cl)c([N+](=O)[O-])c1NC`: the melting point lay in the range of 70 to 72 °C.
To `CC12CCC(C1)C1(C)Oc3ccc(C(=O)/C=C/c4cc(C(=O)O)cs4)cc3C21C` (configuration not stated) belongs 226 to 228 °C; to `O=C(NCc1ccccc1)Oc1ccc2c(ccn2Cc2ccncc2)c1`, 112 to 114 °C; to `CCOc1cc2c(cc1S(=O)(=O)NC(=S)NC)C(CNC(=O)N1CC(C)=C(CC)C1=O)CCO2` (configuration not stated), 178 °C.
To `O=c1c(C2=Nc3ccccc3S(=O)(=O)N2)c(O)c2ccccc2n1CC1CCCC1` belongs 255 to 256 °C; to `CN(C)c1ccc(NC(=O)N(C[C@H]2CCC[C@H](CN(C(=O)Nc3ccc(N(C)C)cc3)C3CCCCC3)C2)C2CCCCC2)cc1` (relative stereo), 145 to 146 °C.
Next, `CC(=O)Nc1c(C#N)cnn1-c1c(F)c(F)c(C(F)(F)F)c(F)c1F`: 153 to 154 °C; `C=CCCN(CCC=C)Cc1noc(-c2ncn3c2[C@@H]2CCN2C(=O)c2ccccc2-3)n1`: 80 to 87 °C.
Regarding `Cc1cc(-c2ccnc(C#N)c2)n(-c2ccc(F)cc2)n1`, the melting point lay in the range of 94 to 95 °C.
In the case of `COc1cc(CC(=O)O)ccc1NC(=O)Nc1ccccc1C(F)(F)F`, the melting point was 218 to 220 °C.
In the case of `COc1ccc(C2CCc3cc(OC)ccc3C2CO)cc1` (configuration not stated), the melting point is 84 °C.
To `ON=c1c2nccc3cccc(c32)n2cccc12` belongs 254 °C; to `CCCOc1ccc(-c2ccc(Cl)nn2)cc1OC`, 132 °C; to `CC1(C)OC[C@H](COc2nc(Oc3ccc(F)cc3F)nc3[nH]nc(-c4ccccc4Cl)c23)O1`, 70.1 to 75.9 °C.
Next, `CS(=O)(=O)Nc1ccc(NC(=O)c2c[nH]c(=S)n2C2CCc3c(F)cc(F)cc3C2)cc1` (configuration not stated): 225 to 230 °C; `O=c1[nH]c2ccc(Cl)cc2c2c1[nH]c1ccccc12`: 325 to 327 °C; `CC(Oc1ccc(Oc2ccc(Cl)cc2)cc1)C(=O)N1CCCO1` (configuration not stated): 98 to 100 °C.
To `CCOC(=O)c1c(C2CCNCC2)[nH]c(-c2cccc(C(F)(F)F)c2)c1-c1ccncc1` belongs 233 to 235 °C; to `CC(C)C(N=C(NN)NN)C(=O)O` (configuration not stated), 112 to 116 °C; to `CN(C)c1ccc(/C=C/c2c(F)ccc(F)c2F)cc1`, 91 to 92 °C.
Take `CCCOc1ccc(S(=O)(=O)N2CCN(CC)CC2)cc1-c1nc2cc3ncn(Cc4cccc(OC)c4)c3cc2c(=O)[nH]1`: the melting point was 117 to 118 °C.
To `COC(=O)C(C#N)c1ccccc1[N+](=O)[O-]` (configuration not stated) belongs 58 to 60 °C; to `CC(C)(C)OC(=O)N1CCC(c2ccc3nc(-c4ccc(C(F)(F)F)cc4)oc3c2)CC1`, 174 to 179 °C; to `CSc1nnsc1-c1cccs1`, 49 to 49.5 °C.
For `COc1cc(C(=O)NCc2ccc(-c3csc(N)n3)s2)cc(OC)c1OC`, the melting point amounted to 217 °C.
To `O=c1cnn(-c2cc(Cl)c(Cc3ccc(Cl)cc3)c(Cl)c2)c(=O)[nH]1` belongs 175 to 176 °C; to `COC(=O)c1cn(C(c2ccccc2)(c2ccccc2)c2ccccc2)c(I)n1`, 192 to 194 °C.
To `NCCc1ccc(N)cn1` belongs 42 to 45 °C.
Consider `CN(CCCN)CCCNc1ccc2ncn3c4ccccc4c(=O)c1c23`, for which the melting point lay within 97 to 99 °C.
Next, `CCc1c(-c2ccc(O)cc2)c2c(COCCCCCN3CCCCC3)cc3c(O)ccc1n32`: 120 to 121 °C.
To `CCCN(c1ccncc1)N1C(=O)Cc2ccccc21` belongs 140 to 143 °C; to `O=C(Cc1cc(C(F)(F)F)ns1)c1ccc(Cl)cc1`, 109 to 110 °C.
To `CC1(C)[C@@H](CN2CCCS2(=O)=O)CC[C@@]1(C)NCC(=O)N1C[C@@H](F)C[C@H]1C#N` belongs 126 to 128 °C; to `CCOC(=O)c1cn2c3c(c(C#N)ccc3c1=O)CCC2C` (configuration not stated), 249 to 251 °C; to `COc1cc([N+](=O)[O-])c2nccc(C)c2c1OCCCCCc1ccco1`, 47 to 49 °C.
The compound `C=Cc1ccc(S(=O)(=O)Nc2ncnc(Cl)c2Cc2c(OC)cccc2OC)cc1` yielded a melting point of 197 to 198 °C.
